From ChEMBL document CHEMBL3430912, “GSK Tres Cantos Anti-Kinetoplastid Screening (TCAKS) Data”

Legend:
Trypanosoma cruzi [1] = test: GSK_TCAKS: pIC50 Trypanosoma cruzi viability assay using beta-GAL activity. This assay was run at single shot at 5uM compound concentration per well. The biological reagents consisted of NIH-3T3 host cells and trypomastigotes parasitic cells; both cell types were set to a 3.3 * 10^5 cells/mL dilution in assay DMEM by means of a CASY cell counter device using a 60um capillary. 6 uL of the mixture were dispensed per well (about 1 * 10^3 host-cells and 1 * 10^3 parasites) with a Multidrop Combi dispenser. […] In all wells, the percentage of DMSO never exceeded 0.5%. Plates incubated for four days at 37C, 5% CO2. The substrate used for the assay fluorescence intensity (FLINT) readout was resorufin-beta-D-galactopiranoside (Sigma-Aldrich) at 5uM per well. It was diluted in PBS supplemented with the soft detergent Igepal (Fluka).; assay type: functional, organism-based, Mus musculus; conditions: Tulahuen, NIH3T3
Trypanosoma cruzi [2] = test: (§1) GSK_TCAKS: pIC50 Trypanosoma cruzi Imaging: Infected Cells. […] Cells were then washed once with PBS before infection. T. cruzi trypomastigotes, collected at days 5 to 8 after infection from LLC-MK2 parasite infected cultures, were allowed to swim out for 4h at 37C from a centrifuged pellet (2,500 rpm/10 min/room temperature). Trypomastigotes were then collected and counted in a CASY Cell Counter. Trypomastigotes, in supplemented DMEM, were added to H9c2 cultures in a multiplicity of infection of 1 and incubated for 18 h. Cells were washed once with PBS before incubation of the infected H9c2 monolayer with trypsin (Life-Technologies) to detach cells from the flask. Cells were counted in a CASY Cell Counter using a 150 um capillary and their density set at 5 * 10^4 cells per mL in supplemented assay DMEM. Infected H9c2 were dispensed into 384-well poly-lysine coated assay plates at 50uL per well using a Multidrop Combi dispenser. After seeding them, the plates were incubated at 37C, 5% CO2 for 72h. Cultures were then fixed and stained by addition of 50 uL of a solution containing 8% formaldehyde and 4 uM DRAQ5 DNA dye (BioStatus, UK) per well. […] Five images were collected per well for reliable statistical analysis. Automated image analysis was performed with a script developed on Acapella High Content Imaging and Analysis Software (PerkinElmer). Output: percentage of infected cells per well as a second infection marker.; assay type: functional, organism-based, Rattus norvegicus; conditions: H9c2, 4 h
Trypanosoma cruzi [3] = test: GSK_TCAKS: pIC50 Trypanosoma cruzi Imaging: Amastigotes/Cell. […] Cells were then washed once with PBS before infection. T. cruzi trypomastigotes, collected at days 5 to 8 after infection from LLC-MK2 parasite infected cultures, were allowed to swim out for 4h at 37C from a centrifuged pellet (2,500 rpm/10 min/room temperature). Trypomastigotes were then collected and counted in a CASY Cell Counter. Trypomastigotes, in supplemented DMEM, were added to H9c2 cultures in a multiplicity of infection of 1 and incubated for 18 h. Cells were washed once with PBS before incubation of the infected H9c2 monolayer with trypsin (Life-Technologies) to detach cells from the flask. Cells were counted in a CASY Cell Counter using a 150 um capillary and their density set at 5 * 10^4 cells per mL in supplemented assay DMEM. Infected H9c2 were dispensed into 384-well poly-lysine coated assay plates at 50uL per well using a Multidrop Combi dispenser. After seeding them, the plates were incubated at 37C, 5% CO2 for 72h. Cultures were then fixed and stained by addition of 50 uL of a solution containing 8% formaldehyde and 4 uM DRAQ5 DNA dye (BioStatus, UK) per well. […] Five images were collected per well for reliable statistical analysis. Automated image analysis was performed with a script developed on Acapella High Content Imaging and Analysis Software (PerkinElmer). Output: number of amastigotes per cell as infection level measurement.; assay type: functional, organism-based, Rattus norvegicus; conditions: H9c2, 4 h
Trypanosoma cruzi [4] = test: as §1, with “H2C9” for “Trypanosoma cruzi”, “H9c2 Host Cardiomyocytes.” for “Infected Cells.”, “Number” for “percentage”, “H9c2 Host Cardiomyocytes nuclei to determine drug-related cytotoxicity.” for “infected cells per well as a second infection marker.”; assay type: functional, organism-based, Rattus norvegicus; conditions: H9c2, 4 h
Leishmania donovani [5] = test: GSK_TCAKS: pIC50 Leishmania donovani viability assay using fluorescence intensity. Assay plates (1536-well) were prepared by adding 30nL per well of compound. For single shot assay, the final compound concentration was 5uM. […] Briefly, eGFP LdBOB axenic amastigotes were harvested, fixed and counted in a CASY cell counter (Roche-Applied Science). A final concentration of 1.5 * 10^5 cells per well were prepared in amastigote media containing 500 U/mL penicillin/streptomycin (Invitrogen) and 6uL was dispensed to each experimental well using a Multidrop Combi dispenser (Thermo Scientific). 6uL of assay media was dispensed to control columns used as reference for 100% compound response. Following incubation for 72 h at 37C, 5% CO2, 2 uL of resazurin was added to each well at a final concentration of 0.5 mM in phosphate buffered saline (PBS) with IGEPAL (Sigma-Aldrich), 0.05% (v/v).; assay type: functional, organism-based
Leishmania donovani [6] = test: (§2) GSK_TCAKS: pIC50 Leishmania donovani Imaging: Infected Macrophages. Assay plates (384-well) were prepared by adding 250nL of compound to each well. For single shot assay, the final compound concentration was 5 uM. […] Automated image analysis was performed with a script developed on Acapella High Content Imaging and Analysis Software (PerkinElmer). Output: Percent of infected macrophage cells were reported for each well.; assay type: functional, organism-based, Homo sapiens; conditions: THP-1
Leishmania donovani [7] = test: as §2, with “Amastigotes/Macrophages.” for “Infected Macrophages.”, “Average number” for “Percent”, “amastigotes per” for “infected”, “cell” for “cells”; assay type: functional, organism-based, Homo sapiens; conditions: THP-1
Leishmania donovani [8] = test: as §2, with “THP-1 Host” for “Infected”, “THP-1 cell count” for “Percent of infected macrophage cells”; assay type: functional, organism-based, Homo sapiens
[9] = test system: Trypanosoma brucei brucei; test: GSK_TCAKS: pIC50 Trypanosoma brucei viability assay using fluorescence intensity. Assay plates (1536-well) were prepared by dispensing 25nL of compound solution per well using an Echo acoustic dispenser (Labcyte).; assay type: functional, organism-based; conditions: Lister 427, 2 h
[10] = test system: Trypanosoma brucei brucei; test: GSK_TCAKS: pIC50 Trypanosoma brucei viability assay using luminiscence. Assay plates (1536-well) were prepared. T. brucei cultures were harvested and counted in a CASY cell counter. A parasite suspension was prepared at a final concentration of 5 * 10^4 cells/mL in complete HMI9 medium and 6uL was dispensed to all wells containing compounds using a Multidrop Combi dispenser. 6uL of HMI9 media with 0.4% DMSO were dispensed to control columns. Plates were incubated for 24 h at 37C, 5% CO2 then tempered for 10 min at room temperature. ATP content was quantified by adding 4 uL of CellTiter-Glo Reagent (Promega) according to the manufacturer's instructions. Luminescence was measured using a ViewLux.; assay type: functional, organism-based; conditions: Lister 427, CASY
[11] = GSK_TCAKS: pIC50 HepG2 human cell line viability assay using luminiscence. […] Seeding density was checked to ensure that new mono-layers were not more than 50% confluent at the time of harvesting. Cell suspension was added to 500 mL of the same medium at a final density of 1.2 * 10^5 cells/mL. This cell suspension was dispensed (25 uL, 3000 cells per well) into 384-well clear-bottom plates using a Multidrop Combi dispenser. Prior to addition of the cell suspension, the screening compounds (250 nL) were pre-dispensed into the plates with an Echo liquid handler. Plates were incubated for 48 h at 37C, 5% CO2. After incubation, plates equilibrated at room temperature for 30 min before proceeding to develop the luminescent signal. The signal developer, CellTiter-Glo Reagent, was allowed to equilibrate at room temperature for 30 min and added to the plates (25uL per well) using a Multidrop Combi dispenser. Plates were left for 10 min at room temperature for stabilization and then read using a ViewLux.; assay type: toxicity, cell-based
[12] = target: Sterol 14-alpha demethylase (Trypanosoma cruzi (strain CL Brener), UniProt Q7Z1V1); test: GSK_TCAKS: pIC50 CYP51 from Trypanosoma cruzi.; assay type: functional
Chain of Sterol 14-alpha demethylase (Q7Z1V1 whole entry): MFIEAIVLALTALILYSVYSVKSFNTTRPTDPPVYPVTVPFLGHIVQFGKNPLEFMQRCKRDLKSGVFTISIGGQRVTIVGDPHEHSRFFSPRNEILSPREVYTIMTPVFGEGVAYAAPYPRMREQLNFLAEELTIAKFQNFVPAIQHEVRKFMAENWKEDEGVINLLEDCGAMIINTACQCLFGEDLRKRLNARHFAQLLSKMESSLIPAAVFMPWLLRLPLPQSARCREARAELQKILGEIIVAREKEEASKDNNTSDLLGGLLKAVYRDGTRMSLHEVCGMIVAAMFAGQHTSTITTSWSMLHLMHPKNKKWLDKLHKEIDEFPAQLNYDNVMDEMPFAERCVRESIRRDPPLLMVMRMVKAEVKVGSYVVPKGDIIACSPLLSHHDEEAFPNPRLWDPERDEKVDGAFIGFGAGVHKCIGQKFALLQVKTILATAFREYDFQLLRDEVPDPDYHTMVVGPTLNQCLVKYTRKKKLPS

SMILES | IC50 (Trypanosoma cruzi [1]) [µM] | IC50 (Trypanosoma cruzi [2]) [µM] | IC50 (Trypanosoma cruzi [3]) [µM] | IC50 (Trypanosoma cruzi [4]) [µM] | IC50 (Leishmania donovani [5]) [µM] | IC50 (Leishmania donovani [6]) [µM] | IC50 (Leishmania donovani [7]) [µM] | IC50 (Leishmania donovani [8]) [µM] | IC50 [9] [nM] | IC50 [10] [µM] | IC50 at 48 h [11] [µM] | IC50 [12] [µM]
c1ccc(-c2nc(NCc3ccco3)c3ccccc3n2)nc1 | 6.31 | 3.16 | 3.98 | 2 | 3.16 | 2.51 | 2.51 | 31.6 | > 39800 | 6.31 | > 100 | > 100
Cc1cc(C)n(-c2nc(NC(C)C)nc(NC(C)(C)C)n2)n1 | 2.24 | 1.58 | 0.501 | 0.2 | 3.16 | 5.01 | 3.98 | 6.31 | 20000 | 12.6 | > 100 | > 100
COc1ccc(C2CC(c3ccc(NS(C)(=O)=O)cc3)=NN2C(=O)c2cccs2)cc1OC (centres undefined) | 25.1 | 31.6 | 15.8 | > 50.1 | 12.6 | 5.01 | 3.98 | > 50.1 | 15800 | 25.1 | > 100 | 12.6
COc1ccccc1C1CC(c2ccc(NS(C)(=O)=O)cc2)=NN1C(=O)c1cccs1 (centres undefined) | 25.1 | > 50.1 | > 50.1 | > 50.1 | 3.98 | 3.98 | 2.51 | > 50.1 | 15800 | 20 | > 100 | 25.1
CCS(=O)(=O)Nc1ccc(C2=NN(C(=O)c3cccs3)C(c3ccccc3OC)C2)cc1 (centres undefined) | 7.94 | > 50.1 | > 50.1 | > 50.1 | 1.26 | 7.94 | 7.94 | > 50.1 | 5010 | 15.8 | > 100 | 25.1
CCOc1ccc(CN(C)Cc2nc(Nc3ccc(C)cc3)[nH]c(=N)n2)cc1 | 6.31 | 5.01 | 5.01 | 3.16 | 31.6 | 3.98 | 3.16 | 39.8 | 2510 | 2 | 31.6 | 15.8
CCC(CC)C(=O)Nc1cccc(C(=O)Nc2nnc(C3CCCCC3)s2)c1 | 10 | 25.1 | 15.8 | > 50.1 | > 50.1 | > 50.1 | > 50.1 | > 50.1 | 251 | 0.631 | > 100 | > 100
CCN(CC)c1nc(N(C)C)nc2c1CN(Cc1ccccc1)CC2 | 6.31 | 20 | 3.98 | > 50.1 | 7.94 | 6.31 | 3.98 | 39.8 | 20000 | 20 | 63.1 | 10
Cc1[nH]nc(C(F)(F)F)c1NC(=O)CCn1cc(Cl)c([N+](=O)[O-])n1 | 7.94 | 25.1 | 6.31 | > 50.1 | > 50.1 | > 50.1 | > 50.1 | 15.8 | 501 | 0.794 | > 100 | > 100
O=c1ccc2ccc(F)c3c2n1C[C@H]3CN1CCN(CC(O)c2cc3c(cn2)OCS3)CC1 (some centres undefined) | 0.708 | 0.631 | 0.316 | > 50.1 | 20 | > 50.1 | > 50.1 | > 50.1 | 200 | 0.398 | > 100 | > 100
COc1cc(Cl)c(C)cc1NC(=O)c1ccc([N+](=O)[O-])s1 | 0.631 | 0.631 | 0.501 | 2.51 | 7.94 | 6.31 | 5.01 | > 50.1 | 501 | 10 | 31.6 | 15.8
Cc1cc(NC(=O)c2ccc([N+](=O)[O-])s2)ccc1Br | 0.251 | 0.398 | 0.251 | 2.51 | 3.16 | 2.51 | 1.58 | 15.8 | 316 | 5.01 | 39.8 | 10
CS(=O)(=O)c1ccccc1C(=O)N(Cc1ccccc1)c1ccccc1 | 50.1 | > 50.1 | 39.8 | > 50.1 | 15.8 | > 50.1 | 15.8 | > 50.1 | 398 | 0.631 | > 100 | 20
Cc1ccc(Nc2nc(N)nc(CNC(c3nc4ccccc4[nH]3)C(C)C)n2)cc1 (centres undefined) | 1 | 7.94 | 5.01 | > 50.1 | 3.98 | 2 | 1.26 | 25.1 | 7940 | 5.01 | > 100 | 50.1
O=C(Nc1ccc(S(=O)(=O)N2CCCC2)cc1)c1ccc([N+](=O)[O-])s1 | 0.2 | 0.2 | 0.2 | 1.58 | 7.94 | 1.58 | 1 | > 50.1 | 158 | 0.2 | 6.31 | > 100
Cc1ccc(-c2csc(NC(=O)C=Cc3ccc(S(=O)(=O)N4CCOCC4)cc3)n2)o1 | 7.94 | 10 | 10 | 31.6 | 6.31 | 5.01 | 0.794 | > 50.1 | 3160 | 5.01 | > 100 | 20
O=C(Nc1nc2cc(Cl)ccc2o1)c1cccc(Cl)c1 | 0.794 | 0.794 | 0.631 | 2.51 | 0.398 | > 50.1 | > 50.1 | 6.31 | 794 | 0.794 | > 100 | > 100
